Results from patent US11479536B1 (King Abdulaziz University, priority 2022, dated 2022).
Where “and” joins values, the source holds several entries; their conditions need not be identical. Equal entries are not always repeated.

How the values were obtained:
MCF7 spheroids [1] = assay: Live and dead assay of tumor spheroids, MCF7; format: cell-based, human; details: 48 h post treatment, control 10.33±2.40%
Description: (§1) The Live/Dead assay contains a mixture of two staining fluorescent dyes that label live and dead cells to enable differentiation between them. The cell viability of the cells in response to the treatment with MAK compounds was examined. The cells were grown for 48 hours and treated with MAK compound for additional 48 hours, then Cytox RED solution reagent was added. After incubation at 37° C. under 5% CO2 for 1 hour, the samples were immediately analyzed by flow cytometry. Mean values and standard deviation of replicates were calculated in comparison to the control group.

T47D spheroids [2] = assay: Live and dead assay of tumor spheroids, T47D; format: cell-based, human; details: 48 h post treatment, control 2.60±0.31%
Description: as §1

AMPK (A1/B1/G2) = target: T1, AMPK (A1/B1/G2) (Homo sapiens, UniProt Q13131+Q9UGJ0+Q9Y478); assay: Cell-free AMPK inhibition assay, AMPK (A1/B1/G2) Kinase Enzyme system; format: biochemical; details: recombinant full-length human AMPK
T1 construct: This system includes a recombinant full-length human AMPK enzyme; purchased Promega
T1 sequence (Q13131 whole entry): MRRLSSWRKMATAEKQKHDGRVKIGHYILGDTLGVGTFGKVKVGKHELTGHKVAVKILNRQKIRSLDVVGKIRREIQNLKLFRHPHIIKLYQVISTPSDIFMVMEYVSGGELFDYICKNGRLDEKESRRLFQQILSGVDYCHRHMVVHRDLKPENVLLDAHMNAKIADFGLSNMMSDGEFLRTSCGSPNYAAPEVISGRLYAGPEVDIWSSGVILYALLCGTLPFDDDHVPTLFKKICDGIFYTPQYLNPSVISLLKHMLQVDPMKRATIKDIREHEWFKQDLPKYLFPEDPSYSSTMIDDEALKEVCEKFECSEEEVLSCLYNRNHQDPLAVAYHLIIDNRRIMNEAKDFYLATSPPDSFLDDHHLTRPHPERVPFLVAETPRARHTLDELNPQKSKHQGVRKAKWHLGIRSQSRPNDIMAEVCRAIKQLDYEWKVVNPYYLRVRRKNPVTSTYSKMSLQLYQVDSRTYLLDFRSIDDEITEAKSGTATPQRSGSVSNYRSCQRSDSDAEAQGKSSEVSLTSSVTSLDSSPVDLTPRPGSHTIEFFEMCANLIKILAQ
T1 sequence (Q9Y478 whole entry partner): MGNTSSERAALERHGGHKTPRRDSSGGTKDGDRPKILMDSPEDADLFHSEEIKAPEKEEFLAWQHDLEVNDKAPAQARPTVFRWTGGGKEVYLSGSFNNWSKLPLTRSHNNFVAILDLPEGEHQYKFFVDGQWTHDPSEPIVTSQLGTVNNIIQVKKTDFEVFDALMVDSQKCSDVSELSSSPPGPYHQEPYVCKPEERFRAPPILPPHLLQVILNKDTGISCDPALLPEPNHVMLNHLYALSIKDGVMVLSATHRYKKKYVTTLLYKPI
T1 sequence (Q9UGJ0 whole entry partner): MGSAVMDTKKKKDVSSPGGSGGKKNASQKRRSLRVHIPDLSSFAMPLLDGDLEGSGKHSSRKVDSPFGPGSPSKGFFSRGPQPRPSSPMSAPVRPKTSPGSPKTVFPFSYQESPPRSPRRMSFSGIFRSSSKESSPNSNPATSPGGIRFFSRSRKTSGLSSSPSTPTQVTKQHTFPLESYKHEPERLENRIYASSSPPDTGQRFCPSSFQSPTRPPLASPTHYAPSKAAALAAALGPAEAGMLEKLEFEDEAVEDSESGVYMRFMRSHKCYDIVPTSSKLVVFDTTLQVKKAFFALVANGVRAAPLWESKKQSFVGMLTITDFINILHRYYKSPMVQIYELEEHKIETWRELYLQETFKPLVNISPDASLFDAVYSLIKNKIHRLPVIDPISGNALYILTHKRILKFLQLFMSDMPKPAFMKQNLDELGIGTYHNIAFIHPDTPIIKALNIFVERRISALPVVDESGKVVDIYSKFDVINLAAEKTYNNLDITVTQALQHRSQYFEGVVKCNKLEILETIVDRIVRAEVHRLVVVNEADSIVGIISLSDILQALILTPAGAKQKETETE
Description: The inhibitory effect of serial concentrations of MAK compounds on AMPK Kinase activity was investigated using the highly sensitive AMPK (A1/B1/G2) Kinase Enzyme assay system (Promega, Madison Wis. USA). This system includes a recombinant full-length human AMPK enzyme and a substrate for the enzyme. The experiment was conducted according to the manufacturer's instructions in the provided protocol. Mean values of replicates were calculated in comparison to the control group.

T47D cell line = assay: Cytotoxic assay (MTT) in monolayer model, T47D; format: cell-based; details: Homo sapiens, 48 h, read-out: IC50 cytotoxic assay against T47D, monolayer
Description: (§2) 1×10^6 cells of the human breast cancer cell lines MCF7 and T47D were seeded and grown at 37° C. with 5% CO2, in a Dulbecco's Modified Eagle Medium (DMEM) with 10% fetal bovine serum (Sigma). The cells were maintained until they reached the confluence over 90%. Then, the cells were subjected to the different treatment conditions before performing the assays.
(§3) The cytotoxic effects of MAK compounds were assessed against MCF7 and T47D cell lines using MTT cell viability assay. The cells were treated for 48 hours with different concentrations of each MAK compound and the control cells were subjected to the vehicle (0.1% DMSO). Then, 10% of 5 mg/mL MTT was added to each well containing treated or control cells, and mixture was incubated at 37° C. for 3 hours. After that, the MTT-containing media was replaced with 100 μL DMSO and incubated for 10 minutes at room temperature before measuring the absorbance for each well at 570 nm. According to the measured absorbance, the IC50 was calculated for each compound. All the experiments were performed in biological and experimental replicates.

T47D spheroids [3] = assay: Mitochondrial membrane potential assay (JC-1), T47D spheroids; format: cell-based, human; details: 48 h post treatment at IC50, control 15.67±2.05%
Description: (§4) The mitochondrial membrane potential was investigated in response to the treatment with MAK compounds. This assay depends on the measurement of the aggregate fluorescence for Tetraethylbenzimidazolylcarbocyanine iodide (JC-1). This cationic dye accumulates in the energized mitochondria, and the increase in aggregate fluorescence indicates mitochondrial […] while the reduction indicates the depolarization state.
(§5) After growing the cells and treating them with MAK compound for 48 hours, 2 μM of JC-1 final concentration was added and the mixture was incubated for 1 hour at 37° C. in presence of 5% CO2. Then, the samples were analyzed using flow cytometry. Mean values and standard deviation of replicates were calculated in comparison to the control group.

T47D spheroids [4] = assay: Reactive oxygen species (CellROX) assay, T47D spheroids; format: cell-based, human; details: 48 h treatment, CellROX Green
Description: (§6) The CELLROX (Invitrogen) assay was used to measure the level of reactive oxygen species (ROS) in live cells. […] The technique was used to investigate the capability of tested compounds to induce intracellular ROS. After forming the spheroids for 48 hours and treating them for additional 48 hours with MAK compound, spheroids were incubated in culture medium with 500 nM CellROX for 60 minutes at 37° C. in presence of 5% CO2, and the samples were immediately analyzed on flow cytometry using 488-nm excitation for the CellROX® Green.

[5] = system: human skin fibroblasts (HSF); assay: Cytotoxicity on human skin fibroblasts (SRB method); format: cell-based; details: HSF, SRB, 72 h
Description: In addition to have a good physicochemical profile, it is important for a studied lead to differentiate between cancer cells and highly proliferating non-cancerous cells. Therefore, we assessed compounds MAK-1 and MAK-6 for both the in silico and in vitro physicochemical characteristics as well as for cytotoxic effect on human skin fibroblasts (SKF) cell lines. Cytotoxicity was determined using Sulforhodamine B (SRB) method. Exponentially growing human skin fibroblast cells (Nawah Scientific, Cairo, Egypt) were collected using 0.25% Trypsin-EDTA and were then seeded in 96-well plates at a density of 1000-2000 cells/well in 10% FBS and penicillin/streptomycin supplemented RPMI-1640 medium. After 24 h, cells were treated with different concentrations of test compounds and incubated for 72 h at 37° C. in a humidified atmosphere containing 5% CO2. Next, the cells were fixed by adding trichloroacetic acid (TCA, 10% final conc. in wells) directly to the wells and incubated for 1 h at 4° C., then cells were washed with distilled water 5 times to remove excess TCA, media, serum proteins, and metabolites, followed by air drying. After that, the fixed cells were stained with 0.4% SRB dissolved in 1% acetic acid for 10 min at room temperature, and excess stain was removed by quickly rinsing with 1% acetic acid. The residual acetic acid was removed completely by air drying the plates for 24 h, and the dye was solubilized with Tris buffer (pH=7.4, 10 mM) for 5 min on a shaker at 1600 rpm. The optical density (OD) of each well was measured spectrophotometrically at 564 nm with an ELISA microplate reader (ChroMate-4300, FL, USA). The IC50 values were calculated according to the equation for Boltzman sigmoidal concentration—response curve using the nonlinear regression fitting models (Graph Pad, Prism Version 5).

MCF7 spheroids [6] = assay: Cytotoxicity assay (MTT) in spheroid culture, MCF7; format: cell-based, human
Description: (§7) 1×10^4 cells of each cell line (MCF7 and T47D) were seeded into ultra-low attachment 96 well plate at 37° C. and grown for 48 hours in DMEM media to result in the formation of spheroids. Then, the cells were subjected to the different treatment conditions before performing the assays.
as §3

T47D spheroids [7] = assay: Cytotoxicity assay (MTT) in spheroid culture, T47D; format: cell-based, human
Description: as §7, §3

MCF7 cell line = assay: Cytotoxic assay (MTT) in monolayer model, MCF7; format: cell-based; details: Homo sapiens, 48 h, read-out: IC50 MCF-7 cell line inhibition, monolayer
Description: as §2, §3

MCF7 spheroids [8] = assay: Mitochondrial membrane potential assay (JC-1), MCF7 spheroids; format: cell-based, human; details: 48 h post treatment at IC50, control 18.01±0.58%
Description: as §4, §5

MCF7 spheroids [9] = assay: Reactive oxygen species (CellROX) assay, MCF7 spheroids; format: cell-based, human; details: 48 h treatment, CellROX Green
Description: as §6

MCF7 cell lines = assay: Cytotoxic assays of KAC-12 on breast cancer MCF7 cell lines; format: cell-based, human
AMPK (phospho-protein) = details: concentration not given; cited from earlier work

COc1cccc(C(=O)Nc2cccnc2CC(=O)NCc2ccccc2)c1
dead rate (dead cells), mean±SEM (MCF7 spheroids [1]): 36.48±0.39%
dead rate (dead cells), mean±SEM (T47D spheroids [2]): 32.10±0.56%
IC50 (AMPK (A1/B1/G2)): 5.8 nM
IC50 (T47D cell line): 97 nM
depolarized cells (mitochondrial membrane), mean±SEM (T47D spheroids [3]): 36.77±0.65%
ROS level, treatment vs control (T47D spheroids [4]): 30%
safety to normal cells (human skin fibroblasts) [5]: highly safe
IC50 (MCF7 spheroids [6]; Homo sapiens, MCF7, 3D spheroid model, 48 h, MTT): 19.6 ± 0.525 µM
reduction of spheroid size (MCF7 spheroids [6]; MCF7 spheroids treated at IC50 for 48 h, vs control): noticeable reduction
IC50 (T47D spheroids [7]; Homo sapiens, T47D, 3D spheroid model, 48 h, MTT): 3.72 ± 0.03 µM
reduction of spheroid size (T47D spheroids [7]; T47D spheroids treated at IC50 for 48 h, vs control): noticeable reduction
IC50 (MCF7 cell line): 148 nM
depolarized cells (mitochondrial membrane), mean±SEM (MCF7 spheroids [8]): 34.00±0.87%
ROS level, treatment vs control (MCF7 spheroids [9]): 25%

O=C(Cc1ccc(NC(=O)c2cccc(Cl)c2)cc1)NCc1ccccc1 [KAC-12]
IC50 (MCF7 cell lines): 47.7 µM
downregulation of the activated AMPK signal (phosphoprotein) (AMPK (phospho-protein)): 15% and 13%

COc1ccc(C(=O)Nc2ccc(CC(=O)NCc3ccccc3)cc2)cc1OC [MAK-2, N-(4-(2-(benzylamino)-2-oxoethyl)phenyl)-3,4-dimethoxybenzamide]
IC50 (MCF7 cell line): 6 nM
melting point: 215 °C

O=C(Cc1ccc(NC(=O)c2cccc(OCCN3CCOCC3)c2)cc1)NCc1ccccc1 [MAK-3, N-(4-(2-(benzylamino)-2-oxoethyl)phenyl)-3-(2-morpholinoethoxy)benzamide]
IC50 (T47D cell line): 1 nM

COc1ccc(C(=O)Nc2ccc(CC(=O)NCc3ccccc3)cc2)cc1Cl [MAK-4, N-(4-(2-(benzylamino)-2-oxoethyl)phenyl)-3-chloro-4-methoxybenzamide]
IC50 (MCF7 cell line): 225 nM
melting point: 186 °C

O=C(Cc1ccc(NC(=O)c2ccc(OCCN3CCOCC3)c(Cl)c2)cc1)NCc1ccccc1 [MAK-5, N-(4-(2-(benzylamino)-2-oxoethyl)phenyl)-3-chloro-4-(2-morpholinoethoxy)benzamide]
melting point: 147 °C

O=C(Cc1ccc(NC(=O)c2cncc(Cl)c2)cc1)NCc1ccccc1 [MAK-9, N-(4-(2-(benzylamino)-2-oxoethyl)phenyl)-5-chloronicotinamide]
melting point: 231 °C

O=C(Cc1ccc(NC(=O)c2ccc(Cl)o2)cc1)NCc1ccccc1 [MAK-10, N-(4-(2-(benzylamino)-2-oxoethyl)phenyl)-5-chlorofuran-2-carboxamide]
IC50 (MCF7 cell line): 225 nM
melting point: 217 °C
